Assay results published in PubChem BioAssay AID1963873 (Molecular Pharmacology Branch, DTP, NCI, 2024).

Tested on: 276233-004-R-J1-PDC KRAS spheroids with HUVEC/MSC, viability
Experiment: Anticancer human tumor 276233-004-R-J1-PDC patient-derived colon adenocarcinoma cell line growth inhibition [KRAS2]
Details: for IC50: curve of first compound; for viability, T/C: stronger effect = lower value
Description: Multicellular complex tumor spheroid response to RAS pathway inhibitors in combination with a targeted agents in patient-derived cell lines with oncogenic KRAS variants from multiple cancer types
A high-throughput screen of multi-cell type tumor spheroids was designed to identify active combinations of targeted small molecules and KRAS pathway inhibitors. Complex spheroids include a stromal component modeled by human endothelial cells (HUVEC) and fibroblasts modeled by human mesenchymal stem cells (MSCs). The concentration ranges selected for each drug and investigational agent were based upon clinically achievable concentrations if the clinical Cmax of the agent was known.
Compounds. The drugs and investigational agents: BI-3406 (NSC825286), BAY-293 (NSC824723), batoprotafib (TNO155; NSC825523), sotorasib (AMG 510; NSC818433), MRTX1257 (NSC819558), elimusertib (BAY 1895344; NSC800525), molibresib (GSK525762; NSC774829), temuterkib (LY3214996; NSC803410), venetoclax (NSC766270), alisertib (NSC759677), olaparib (NSC753686), talazoparib (NSC767125), erdafitinib (NSC781556), ipatasertib (NSC767898), cabozantinib (NSC761068), nintedanib (NSC756659), abemaciclib (NSC768073), docetaxel (NSC628503), trametinib (NSC758246), and sapanisertib (NSC764658) were obtained from the National Cancer Institute (NCI) Developmental Therapeutics Program Chemical Repository. The FDA-approved anticancer drug set is available from the Developmental Therapeutics Program. […] The stock solutions were prepared in dimethyl sulfoxide (DMSO, Sigma-Aldrich, St. Louis, MO, cat. D2650) at 800-fold the tested concentration and stored at -70 degrees C prior to their use. All drugs and investigational agents were tested over a range starting from a high concentration at or near the clinical Cmax and decreasing in half-log increments. If the clinical Cmax for an agent had not been determined, the highest concentration tested was 10 microM.
Cell Culture. All cells were maintained in an incubator at 37 degrees C and 5% CO2 with 95% humidity. The PDC lines were cultured according to standard operating procedures established by the NCI PDMR (https://pdmr.cancer.gov/sops/default.htm). Briefly, all PDCs were thawed and cultured in Matrigel-coated flasks prepared with a working solution of 1X Ham's F-12 nutrient mix, without supplementation (Invitrogen, Waltham, MA, cat. 11765054), 100 U/mL penicillin-streptomycin (Invitrogen, cat. 15140122), and 2.5% Matrigel (Corning Inc., Corning, NY, cat. 354248) for the first three passages. All PDCs were cultured in complete DMEM/F-12 media containing advanced DMEM/F-12 (Invitrogen, cat. 12634028), 4.9% defined fetal bovine serum, heat inactivated (HyClone Laboratories Inc., Logan, UT, cat. SH30070.03HI), 389 ng/mL hydrocortisone (Sigma-Aldrich, cat. H4001), 9.7 ng/mL human EGF recombinant protein (Invitrogen, cat. PHG0313), 23.4 microg/mL adenine (Sigma-Aldrich, cat. A2786), 97.3 U/mL penicillin-streptomycin (Invitrogen, cat. 15140122), 1.9 mM L-glutamine (Invitrogen, cat. 25030081), and 9.7 microM Y-27632 dihydrochloride (Tocris Bioscience, Bristol, United Kingdom, cat. 1254). The PDCs were cultured in complete DMEM/F12 media without 9.7 microM Y-27632 dihydrochloride for at least two passages prior to the screen. The established cell line HOP-62 was cultured in RPMI 1640 medium, HEPES (Invitrogen, cat. 22400105) with 10% defined fetal bovine serum (HyClone Laboratories Inc., cat. SH30070.03) and 2 mM L-glutamine (Invitrogen, cat. 25030081). The pooled donor HUVEC were cultured in endothelial cell growth medium 2 (PromoCell, Heidelberg, Germany, cat. C-22011) and the hMSC were cultured in mesenchymal stem cell growth medium 2 (PromoCell, cat. C-28009). For all experiments, HUVEC and hMSC were used at passages </=5, while the malignant cell lines were used at passages </=15. […]

[1] = second compound 0.1 µM, first compound 0.0316 µM
[2] = second compound 0.1 µM, first compound 0.1 µM
[3] = second compound 0.1 µM, first compound 0.316 µM
[4] = second compound 0.1 µM, first compound 1 µM
[5] = second compound 0.1 µM, first compound 3.16 µM
[6] = second compound 0.1 µM, first compound 10 µM
[7] = second compound 0.316 µM, first compound 0.0316 µM
[8] = second compound 0.316 µM, first compound 0.1 µM
[9] = second compound 0.316 µM, first compound 0.316 µM
[10] = second compound 0.316 µM, first compound 1 µM
[11] = second compound 0.316 µM, first compound 3.16 µM
[12] = second compound 0.316 µM, first compound 10 µM
[13] = second compound 1 µM, first compound 0.0316 µM
[14] = second compound 1 µM, first compound 0.1 µM
[15] = second compound 1 µM, first compound 0.316 µM
[16] = second compound 1 µM, first compound 1 µM
[17] = second compound 1 µM, first compound 3.16 µM
[18] = second compound 1 µM, first compound 10 µM
[19] = second compound 3.16 µM, first compound 0.0316 µM
[20] = second compound 3.16 µM, first compound 0.1 µM
[21] = second compound 3.16 µM, first compound 0.316 µM
[22] = second compound 3.16 µM, first compound 1 µM
[23] = second compound 3.16 µM, first compound 3.16 µM
[24] = second compound 3.16 µM, first compound 10 µM
[25] = second compound 10 µM, first compound 0.0316 µM
[26] = second compound 10 µM, first compound 0.1 µM
[27] = second compound 10 µM, first compound 0.316 µM
[28] = second compound 10 µM, first compound 1 µM
[29] = second compound 10 µM, first compound 3.16 µM
[30] = second compound 10 µM, first compound 10 µM
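Also: cells exposed to agents for seven days before viability read.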
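For viability, T/C in this document: 100% = DMSO vehicle control wells and lower values mean fewer viable cells.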

SMILES | IC50 (second compound 0.1 µM) [µM] | IC50 (second compound 0.316 µM) [µM] | IC50 (second compound 1 µM) [µM] | IC50 (second compound 3.16 µM) [µM] | IC50 (second compound 10 µM) [µM] | viability, T/C [1] [%] | viability, T/C [2] [%] | viability, T/C [3] [%] | viability, T/C [4] [%] | viability, T/C [5] [%] | viability, T/C [6] [%] | viability, T/C [7] [%] | viability, T/C [8] [%] | viability, T/C [9] [%] | viability, T/C [10] [%] | viability, T/C [11] [%] | viability, T/C [12] [%] | viability, T/C [13] [%] | viability, T/C [14] [%] | viability, T/C [15] [%] | further results
COC(=O)c1ccc2c(C(=Nc3ccc(N(C)C(=O)CN4CCN(C)CC4)cc3)c3ccccc3)c(O)[nH]c2c1 + C=CC(=O)N1CCN(c2nc(=O)n(-c3c(C)ccnc3C(C)C)c3nc(-c4c(O)cccc4F)c(F)cc23)C(C)C1 | > 10 | > 10 | > 10 | > 10 | 3.36 | 104 | 72.4 | 71.5 | 92.8 | 91.8 | 97.2 | 105 | 80.5 | 90 | 83 | 91.1 | 92.3 | 106 | 87.5 | 64.8 | viability, T/C [16]: 96.7%; viability, T/C [17]: 96%; viability, T/C [18]: 88.3%; viability, T/C [19]: 93.9%; viability, T/C [20]: 78.1%; viability, T/C [21]: 81.1%; viability, T/C [22]: 63.3%; viability, T/C [23]: 89.5%; viability, T/C [24]: 95.5%; viability, T/C [25]: 78.2%; viability, T/C [26]: 73.2%; viability, T/C [27]: 61.2%; viability, T/C [28]: 82.2%; viability, T/C [29]: 51.8%; viability, T/C [30]: 16.8%
O=C(c1cc(Cc2n[nH]c(=O)c3ccccc23)ccc1F)N1CCN(C(=O)C2CC2)CC1 + C=CC(=O)N1CCN(c2nc(=O)n(-c3c(C)ccnc3C(C)C)c3nc(-c4c(O)cccc4F)c(F)cc23)C(C)C1 | > 10 | > 10 | > 10 | > 10 | > 10 | 83.6 | 96 | 78.6 | 110 | 82.6 | 71.8 | 103 | 103 | 108 | 99 | 105 | 87.9 | 121 | 105 | 98.7 | viability, T/C [16]: 82.9%; viability, T/C [17]: 98.9%; viability, T/C [18]: 99.4%; viability, T/C [19]: 86.4%; viability, T/C [20]: 98.1%; viability, T/C [21]: 82.5%; viability, T/C [22]: 103%; viability, T/C [23]: 85.2%; viability, T/C [24]: 89.8%; viability, T/C [25]: 84.1%; viability, T/C [26]: 83.5%; viability, T/C [27]: 83.2%; viability, T/C [28]: 73.5%; viability, T/C [29]: 78.2%; viability, T/C [30]: 77.8%
